Assay results reported in patent publication US8252833B2, “Benzo (f) isoindol-2-ylphenyl acetic acid derivatives as EP4 receptor agonists” (Glaxo Group Limited, priority 2006, dated 2012).

Columns and labels:
[1] = tested on: FCA induced hypersensitivity; assay: FCA induced hypersensitivity in the rat, weight-bearing readout; assay type: in vivo; settings: for Effect of low dose when administered alone: low (ED20) doses alone, p.o. (FIG. 1); for ED20 dose: p.o., reversal of FCA induced hypersensitivity
Description: • At the start of the study, naïve weight bearing readings were taken. The hypersensitivity to pain was measured using the Rat incapacitance tester (Linton instruments). • All male rats (RH strain, 180-220 g) then received an intraplantar injection of 100 ul of FCA (Freund's complete adjuvant) into the left hind paw. The ECA was sonicated for 15 minutes prior to use. • 24 hours after administration of the FCA, pre-dose weight bearing readings were taken. All animals were then ranked and randomised for dosing according to their FCA window (predose difference in grams—naïve difference in grams). Rats with FCA window less than 30 were excluded from the study. • Animals were then dosed orally according to ranking and randomisation. Two studies were carried out as follows: • In the first study the ED20 doses of Example 9 and paracetamol were combined using the following protocol, • (1) Vehicle (1% methylcellulose) p.o. • (2) Paracetamol (60 mg/kg) p.o.* • (3) Example 9 (0.1 mg/kg) p.o.* • (4) Example 9 (0.1 mg/kg)+Paracetamol (60 mg/kg) p.o.** • (5) Celecoxib (10 mg/kg) p.o. • *ED20 dose • **Example 9 was dosed initially followed by paracetamol 30 minutes later. • In the second study a fixed dose ratio combination with Example 9 and paracetamol was completed using the following protocol, • (1) Vehicle (1% methylcellulose) p.o.+Vehicle (1% methylcellulose) p.o. • (2) Example 9, 0.003 mg/kg p.o.+Paracetamol, 1.8 mg/kg p.o. • (3) Example 9, 0.01 mg/kg p.o.+Paracetamol, 6 mg/kg p.o. • (4) Example 9, 0.03 mg/kg p.o.+Paracetamol, 18 mg/kg p.o. • (5) Example 9, 0.1 mg/kg p.o.+Paracetamol, 60 mg/kg p.o. • (6) Vehicle (1% methylcellulose) p.o.+Celecoxib, 10 mg/kg p.o. • Animals were assessed in the weight bearing apparatus 1 hour after the dose of paracetamol. • The study was blind and randomised by FCA window using a Latin square method. Preparation Details • All compounds were ground using a pestle and mortar prior to adding the vehicle (1% methylcellulose). Dose volume 5 ml/kg. • All doses were sonicated and stirred before administration. • In this study a positive control was also tested (Celecoxib). […] Statistical Analysis • % reversals were calculated by using the naïve, pre-dose and post dose values as follows: % Reversal=[(Pre-dose−Post-dose)/(Pre-dose−Naïve)]×100. • Graphs and ED50 values were calculated using Prism3. • Statistical analysis was carried out using ANOVA and Fischer LSD test from statistical package Statistica 6. • Synergy was statistically calculated using the synergy macro. The logED50 values and the Standard errors for the individual molecules and the combination study are obtained from Statistica 6 and put into the macro. The fixed dose ratio is specified and the macro then calculates whether the combination was statistically synergistic. It compares the combination data to the theoretical addition of the individual compounds. Results: Percentage Reversal of the Established FCA-Induced Hypersensitivity: […]

[2] = target: T1, recombinant human prostanoid EP4 receptor (Homo sapiens, UniProt P35408); assay: In vitro cAMP assay in HEK-EP4 cells; assay type: cell-based
T1 construct: expressed in transfected cells; host or cells: HEK-293(T) cells (HEK-EP4, G418 selected)
Description: Cells were grown as a monolayer culture in DMEM-F12/F12 containing glutamax II (Gibco) and supplemented with 10% foetal bovine serum (Gibco) and 0.4 mg.ml-1 G418. HEK-EP4 cells were pre-treated 24 hr and 30 mins prior to the experiment with 10 μM indomethacin and harvested using Versene containing 10 μM indomethacin. The cells were resuspended in assay buffer (DMEM:F12, 10 μM indomethacin and 200 μM IBMX) at 1×10^6 cells per ml and incubated for 20 min at 37° C. Thereafter, 50 μl of cells were added to 50 μl agonist (compound of Formula (I)) and incubated at 37° C. for 4 minutes before stopping reactions with 1000 of 1% triton X-100. cAMP levels in the cell lysates were determined using a competition binding assay. In this assay the ability of cell lysates to inhibit 3H-cAMP (Amersham) binding to the binding subunit of protein kinase A was measured and cAMP levels were calculated from a standard curve. The data for each compound were expressed as a % of the response to a 10 nM maximal concentration of the standard agonist PGE2. For each compound the maximal response and concentration of compound causing 50% of its maximal response were calculated. Intrinsic activity is expressed relative to the maximal response to PGE2. Unless stated, reagents were purchased commercially from Sigma.

[3] = Oral pharmacokinetics in the rat; settings: in vivo, read-out: oral pharmacokinetic half life (converted)

T1 sequence (P35408 whole entry): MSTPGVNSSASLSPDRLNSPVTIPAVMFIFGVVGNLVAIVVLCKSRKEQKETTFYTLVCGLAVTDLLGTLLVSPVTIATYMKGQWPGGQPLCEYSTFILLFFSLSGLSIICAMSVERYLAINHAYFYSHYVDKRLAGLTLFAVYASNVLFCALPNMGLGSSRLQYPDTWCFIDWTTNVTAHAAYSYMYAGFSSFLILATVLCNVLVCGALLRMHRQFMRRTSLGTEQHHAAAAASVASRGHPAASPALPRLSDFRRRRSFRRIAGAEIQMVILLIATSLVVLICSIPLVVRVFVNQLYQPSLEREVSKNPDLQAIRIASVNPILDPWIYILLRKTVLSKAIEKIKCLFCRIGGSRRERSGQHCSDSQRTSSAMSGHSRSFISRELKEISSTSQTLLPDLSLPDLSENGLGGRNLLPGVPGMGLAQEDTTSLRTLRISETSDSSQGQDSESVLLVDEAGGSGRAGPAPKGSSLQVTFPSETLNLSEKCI

Row | Structure (SMILES) | Effect of low dose when administered alone [1] | ED20 dose ([1]; rat) [mg/kg] | EC50 [2] [nM] | Emax ([2]; maximal response relative to the maximal response to PGE2 (10 nM), read-out: average intrinsic activity) [%] | EC50 at 3 mg/kg ([1]; Rattus norvegicus) [nM] | reversal of eFCA-induced hypersensitivity ([1]; dosed alone at 3 mg/kg, rat) [%] | half-life [3] [h]
1 | CC(=O)Nc1ccc(O)cc1 [Paracetamol, paracetamol, reference compound] | ineffective | 60 | – | – | – | – | –
2 | CCOc1c2c(c(OCC)c3ccccc13)C(=O)N(c1ccc(CC(=O)O)c(F)c1)C2 [Example 9, {4-[4,9-Bis(ethyloxy)-1-oxo-1,3-dihydro-2H-benzo[f]isoindol-2-yl]-2-fluorophenyl}acetic acid] | ineffective | 0.1 | 39.8 | 68 | 600 | 80 | 7.6
